pIC50: −log10 of the molar value.
Tests used:
[1] = test system: choline acetyltransferase (ChAT) activity in dissociated rat embryonic spinal cord culture; test: Spinal Cord ChAT Activity Assay; assay type: cell-based; conditions: ChAT measured after 48 hours
[2] = test system: ChAT activity of basal forebrain cultures; test: Basal Forebrain ChAT Activity Assay; assay type: cell-based, rat
Summary of the method: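 Basal forebrain neurons from E17–18 rat embryos were Dispase-dissociated and plated at 5×10^4 cells/well on poly-ornithine/laminin. Cultures were kept in serum-free N2 medium with 0.05% BSA at 37° C. ChAT activity was measured 5 days after plating as the read-out for compound-induced increase.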

[3] = test system: chick dorsal root ganglion neurons; test: DRG Neurite Outgrowth Assay; assay type: cell-based; conditions: compound concentration 200 nM; 48 hours
Method: Fused pyrrolocarbazoles promoted nerve fiber (i.e., neurite) outgrowth in explant (i.e., primary) cultures of chick dorsal root ganglion neurons. Dorsal root ganglion (i.e., DRG) nerve fiber outgrowth was increased when a fused pyrrolocarbazole was added to cultures at a concentration of 200 nM (Table IV). Control cultures consisted of: 1) no added NGF or fused pyrrolocarbazole ("Control"), or 2) 50 ng/ml NGF, a neurotrophin known to promote neurite extension in DRG cultures ("NGF").
Methods: Dorsal root ganglia were dissected from chick embryos (embryonic day 9) and individual ganglia were plated on poly-1-ornithine and laminin coated plates. A fused pyrrolocarbazole or 50ng/ml NGF was each added to independent cultures after allowing a 1-2 hour cell attachment period. Explants were cultured for 48 hours in serum-free N2 medium supplemented with 0.05% BSA (Bottenstein et al., PNAS USA 76:514-517 (1979)). Cultures were maintained at 37° C. in a humidified atmosphere, 5% CO2 /95% air. Nerve fiber outgrowth was assessed by the density and length of neurites. It should be apparent to those skilled in the art that neurite extension assays are semi-quantitative and involve a visual comparison between control and experimental neuronal cell cultures (Alberts et al., Molecular Biology of the Cell, 2ed. Garland Publishing, Inc., New York (1989).

[4] = test system: NT-3 induced ChAT activity of rat basal forebrain cultures; test: Enhancement of Neurotrophin (NT-3) Activity Assay, ChAT activity in basal forebrain cultures; assay type: cell-based
Method: Fused pyrrolocarbazoles were tested for the ability to enhance the activity of the neurotrophin NT-3 in basal forebrain cultures. ChAT activity was assayed as a measure of cholinergic neuron function and survival. The concentration of NT-3 (100 ng/ml) used in these experiments increased ChAT activity over control cultures (untreated with NT-3 or a fused pyrrolocarbazole) by 140%.
Methods. Basal forebrain cultures were prepared from embryonic rats (embryonic day 17) and dissociated with the neutral protease Dispase™. Cells were plated at a density of 4×10^5 cells/cm^2 on poly-1-ornithine coated plastic tissue culture plates in a mixture of DMEM and F12 media (50/50 v/v GIBCO) supplemented with 5% horse serum and 0.5% fetal bovine serum. Cells were incubated at 37° C. in a humidified atmosphere of 5% CO2 /95% air for 5 days. ChAT activity was measured as described in Example III(A)(1).
Recombinant rat NT-3 was produced by using a recombinant baculovirus expression vector under the control of the polyhedron virus promoter (Fraser, In Vitro Cell. and Dev. Biol. 25:225-235 (1989)). The plasmid pXM-NT3 (Hallbook et al., Neuron 6:845-858 (1991), which contained the rat NT-3 cDNA clone, was provided by Dr. Ira Black (University of Medicine and Dentistry of New Jersey, Piscataway, N.J.). NT-3 cDNA was subcloned into the transfer vector pVL1392 (In Vitrogen Corp., San Diego, Calif.) for recombinant virus production. Recombinant baculovirus was produced as described in Meyer et al. (Meyer at al., J. Neurochem 62:825-833 (1994)).

[5] = target: protein kinase C; test: PKC Activity Inhibition Assay; assay type: biochemical
Method: Fused pyrrolocarbazoles inhibited the activity of protein kinase C (Table VI). The protein kinase C assay has been disclosed (Murakata et al., U.S. Pat. No. 4,923,986; Kikkawa et al., J. Biol. Chem. 257:13341-13348 (1982)). The assay was performed with several concentrations of fused pyrrolocarbazoles. The concentration at which protein kinase C was 50% inhibited (IC50) was determined.

[6] = target: trkA tyrosine kinase (Homo sapiens, UniProt P04629); test: trkA Tyrosine Kinase Activity Inhibition Assay (ELISA); assay type: biochemical; conditions: 16 μM ATP, 37° C., 15 min; read-out: INHIBITION OF trkA KINASE IC50
Chain of trkA tyrosine kinase (P04629 33-796): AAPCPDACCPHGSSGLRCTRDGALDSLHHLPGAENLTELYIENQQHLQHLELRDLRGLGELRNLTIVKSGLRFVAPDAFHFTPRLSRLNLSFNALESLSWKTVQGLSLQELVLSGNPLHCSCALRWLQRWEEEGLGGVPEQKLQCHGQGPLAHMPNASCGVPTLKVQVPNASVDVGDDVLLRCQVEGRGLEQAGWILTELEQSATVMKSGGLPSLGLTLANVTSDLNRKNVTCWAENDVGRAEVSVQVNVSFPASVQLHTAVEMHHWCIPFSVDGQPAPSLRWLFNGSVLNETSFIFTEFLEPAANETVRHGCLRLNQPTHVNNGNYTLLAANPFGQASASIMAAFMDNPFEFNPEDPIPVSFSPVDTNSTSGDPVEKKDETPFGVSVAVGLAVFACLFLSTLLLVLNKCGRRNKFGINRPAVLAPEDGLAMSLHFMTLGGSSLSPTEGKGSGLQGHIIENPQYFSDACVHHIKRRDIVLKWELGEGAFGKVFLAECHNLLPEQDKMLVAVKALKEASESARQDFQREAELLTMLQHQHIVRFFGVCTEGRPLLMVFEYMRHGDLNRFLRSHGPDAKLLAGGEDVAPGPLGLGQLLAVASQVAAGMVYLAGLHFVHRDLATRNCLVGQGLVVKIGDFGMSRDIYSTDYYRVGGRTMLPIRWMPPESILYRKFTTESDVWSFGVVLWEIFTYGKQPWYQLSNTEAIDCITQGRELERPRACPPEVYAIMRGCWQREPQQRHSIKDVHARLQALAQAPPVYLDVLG
Method: These compounds were then tested for the ability to inhibit substrate phosphorylation by the trkA tyrosine kinase.
Plates were washed three times with TBST, followed by two washes with TBS (TBST sans Tween-20). Fused pyrrolocarbazoles were then added at various concentrations to a reaction mixture (50 mM HEPES, pH 7.4, 5 mM MnCl2, 5 mM MgCl2, 140 mM NaCl, 16 μM ATP, and 15 ng trkA in a total volume of 1001 μL.). As a negative control, 100 mM EDTA was included in the reaction solution. The plates were then incubated at 37° C. for 15 min. The detection antibody, monoclonal anti-phosphotyrosine antibody (UBI), was added at a dilution of 1:2000 in TBST, and incubated for 1 hour at 37° C. Plates were then washed three times with TBST, followed by a 1 hour incubation at 37° C. with alkaline phosphatase-labeled goat anti-mouse IgG (1:2000 in TBST (Bio-Rad)). After washing three times with TBST followed by two washes with TBS, a colored product was produced by using NADPH as substrate for alkaline phosphatase, and the coupled reactions of diaphorase and alcohol dehydrogenase (GIBCO-BRL ELISA amplification system). The colored product was read at 490 nm in a microplate reader (Biotek).

[7] = test system: protein kinase C ("PKC"); conditions: cited from earlier work
[8] = test system: trk tyrosine kinase; conditions: cited from earlier work
[9] = test system: transcription of IFNα genes; conditions: not associated with the inhibition of protein kinase C; cited from earlier work
[10] = test system: human keratinocytes; conditions: cited from earlier work

O=C1NC(=O)c2c1c1c(c3[nH]c4ccccc4c23)Cc2ccccc2-1 [Compound I-1, 6H, 12H, 13H-Indeno[2,3-a]pyrrolo[3,4-c]carbazole-5,7(5H, 7H))-dione]
Spinal Cord ChAT Activity, % of Control, untreated cultures [1]: 148 % of Control
ChAT Activity (% of Control) ([2]; 100 nM): inactive
ChAT Activity (% of Control) ([2]; 250 nM): inactive
ChAT Activity (% of Control) ([2]; 500 nM): inactive
DRG Neurite Outgrowth [3]: modest number of neurites
ChAT activity in the absence of NT-3 ([4]; compound added alone to basal forebrain neurons, no NT-3): no effect on ChAT activity
ChAT activity in the presence of NT-3 ([4]; with 100 ng/ml NT-3): enhanced ChAT activity
pIC50 [5]: 7.15
pIC50 [6]: < 6.00

COC(=O)[C@@]1(O)C[C@H]2O[C@]1(C)n1c3ccccc3c3c4c(c5c6ccccc6n2c5c31)C(=O)NC4 [Compound K-252a]
inhibition of protein kinase C [7]: inhibitor
inhibition of trk tyrosine kinase [8]: inhibitor
inhibition of transcription of IFNα genes [9]: inhibit the transcription of IFNα genes
NGF-stimulated proliferation of human keratinocytes [10]: prevents such proliferation

NGF: a neurotrophin known to promote neurite extension in DRG cultures
proliferation of human keratinocytes [10]: stimulates the proliferation of human keratinocytes in culture
